Data taken from patent publication US20230381280A1, “NEW DOSAGE REGIMEN FOR INHALED VASOACTIVE INTESTINAL POLYPEPTIDE” (priority 2020, published 2023).

Test system: COVID-19 pulmonary involvement

Question: Which “Entering Intensive Care (%)” value (Age >=60, treatment group) does the source give for `CC[C@H](C)[C@H](NC(=O)[C@H](CO)NC(=O)[C@H](CC(N)=O)NC(=O)[C@H](CC(C)C)NC(=O)[C@H](Cc1ccc(O)cc1)NC(=O)[C@H](CCCCN)NC(=O)[C@H](CCCCN)NC(=O)[C@@H](NC(=O)[C@H](C)NC(=O)[C@H](CCSC)NC(=O)[C@H](CCC(N)=O)NC(=O)[C@H](CCCCN)NC(=O)[C@H](CCCNC(=N)N)NC(=O)[C@H](CC(C)C)NC(=O)[C@H](CCCNC(=N)N)NC(=O)[C@@H](NC(=O)[C@H](Cc1ccc(O)cc1)NC(=O)[C@H](CC(N)=O)NC(=O)[C@H](CC(=O)O)NC(=O)[C@@H](NC(=O)[C@H](Cc1ccccc1)NC(=O)[C@@H](NC(=O)[C@H](C)NC(=O)[C@H](CC(=O)O)NC(=O)[C@H](CO)NC(=O)[C@@H](N)Cc1c[nH]cn1)C(C)C)[C@@H](C)O)[C@@H](C)O)C(C)C)C(=O)N[C@@H](CC(C)C)C(=O)N[C@@H](CC(N)=O)C(N)=O` [Aviptadil] here?
Answer: 25%

Question: What about the Tolerability (human, in vivo) of the same molecule?
Answer: well tolerated
